What was measured:
Settings in all cases: 72 h
Caco-2 [1] = assay: cell viability relative to DMSO; higher = less toxic
Calu-3 [2] = assay: as above
HepG2 [3] = assay: as above
U2OS [4] = assay: as above
Caco-2 [5] = assay: relative viability EC50 (midpoint between 100% and the lowest measured viability); higher = less toxic
Calu-3 [6] = assay: as above
HepG2 [7] = assay: as above
U2OS [8] = assay: as above
Caco-2 [9] = assay: drug sensitivity score (DSS) for viability; higher = more toxic; extreme values may be limits of the assay
Calu-3 [10] = assay: as above
HepG2 [11] = assay: as above
U2OS [12] = assay: as above
Vero E6 [13] = assay: cell viability relative to DMSO; higher = less toxic
Vero E6 [14] = assay: relative viability EC50 (midpoint between 100% and the lowest measured viability); higher = less toxic
Vero E6 [15] = assay: drug sensitivity score (DSS) for viability; higher = more toxic; extreme values may be limits of the assay

Row | SMILES | cell viability (Caco-2 [1]; 1 nM) | cell viability (Caco-2 [1]; 10 nM) | cell viability (Caco-2 [1]; 100 nM) | cell viability (Caco-2 [1]; 1000 nM) | cell viability (Caco-2 [1]; 10000 nM) | cell viability (Calu-3 [2]; 1 nM) | cell viability (Calu-3 [2]; 10 nM) | cell viability (Calu-3 [2]; 100 nM) | cell viability (Calu-3 [2]; 1000 nM) | cell viability (Calu-3 [2]; 10000 nM) | cell viability (HepG2 [3]; 1 nM) | cell viability (HepG2 [3]; 10 nM) | cell viability (HepG2 [3]; 100 nM) | cell viability (HepG2 [3]; 1000 nM) | cell viability (HepG2 [3]; 10000 nM) | cell viability (U2OS [4]; 1 nM) | cell viability (U2OS [4]; 10 nM) | cell viability (U2OS [4]; 100 nM) | cell viability (U2OS [4]; 1000 nM) | cell viability (U2OS [4]; 10000 nM) | relative viability EC50 (Caco-2 [5]) | relative viability EC50 (Calu-3 [6]) | relative viability EC50 (HepG2 [7]) | relative viability EC50 (U2OS [8]) | drug sensitivity score (Caco-2 [9]) | drug sensitivity score (Calu-3 [10]) | drug sensitivity score (HepG2 [11]) | drug sensitivity score (U2OS [12]) | cell viability (Vero E6 [13]; 1 nM) | cell viability (Vero E6 [13]; 10 nM) | cell viability (Vero E6 [13]; 100 nM) | cell viability (Vero E6 [13]; 1000 nM) | cell viability (Vero E6 [13]; 10000 nM) | relative viability EC50 (Vero E6 [14]) | drug sensitivity score (Vero E6 [15])
1 | Cc1ccc(S(=O)(=O)NCl)cc1 [chloramine-T] | 99.5% | 104% | 92.2% | 101% | 99.2% | 102% | 107% | 92.2% | 101% | 92.6% | 101% | 98.5% | 104% | 102% | 102% | 105% | 97.7% | 105% | 99.1% | 99.4% | > 10 µM | > 10 µM | > 10 µM | > 10 µM | 0 | 0 | 0 | 0 |  |  |  |  |  |  | 
2 | Clc1ccccc1C(c1ccccc1)(c1ccccc1)n1ccnc1 [clotrimazole] | 96% | 97.1% | 96.2% | 91.9% | 71% | 94.7% | 102% | 92.9% | 96.4% | 94% | 96.9% | 98% | 114% | 99.8% | 56.9% | 104% | 104% | 95.9% | 99.5% | 72% |  | > 10 µM |  |  | 2.2 | 0 | 2.2 | 1.2 | 93.8% | 95.3% | 100% | 99.2% | 89.9% | > 10 µM | 0
3 | CN1C(=O)CC[C@H]1c1cccnc1 [cotinine] | 71.1% | 74.2% | 84.3% | 83% | 106% |  |  |  |  |  | 104% | 99.4% | 106% | 105% | 96.2% | 94.7% | 97.2% | 92.9% | 95.7% | 102% |  |  | > 10 µM | > 10 µM | 5.4 |  | 0 | 0 | 95.9% | 92.8% | 94% | 95.7% | 106% | > 10 µM | 0
4 | O=c1ccc2ccccc2o1 [coumarin] | 96.5% | 97.6% | 99.2% | 95.9% | 95.5% | 97.7% | 90.9% | 95.6% | 105% | 88.6% | 91.8% | 107% | 106% | 96.7% | 111% | 100% | 98.1% | 96.1% | 99.1% | 98.1% | > 10 µM | > 10 µM | > 10 µM | > 10 µM | 0 | 0 | 0 | 0 |  |  |  |  |  |  | 
5 | CN[C@@H](C)[C@H]1[C@H](O)C[C@@]2(C)[C@@H]3CC[C@H]4C(C)(C)[C@@H](NC)CC[C@@]45C[C@@]35CC[C@]12C [cyclovirobuxin-D] | 101% | 92.1% | 91.2% | 90.1% | 90.6% | 102% | 94.7% | 98.6% | 99.2% | 102% | 96.3% | 99.5% | 91.5% | 99% | 99.1% | 101% | 96.3% | 99.4% | 99.8% | 97.6% | > 10 µM | > 10 µM | > 10 µM | > 10 µM | 0 | 0 | 0 | 0 |  |  |  |  |  |  | 
6 | O=C(O)[C@@H]1C[C@@H](C2CCCCC2)CN1C(=O)CP(=O)(O)CCCCc1ccccc1 [fosinoprilat] | 97.6% | 88.5% | 105% | 90.4% | 102% | 99.4% | 98.8% | 98.4% | 95.1% | 108% | 105% | 104% | 96.2% | 101% | 101% | 99.6% | 93.7% | 97.5% | 95% | 97.1% | > 10 µM | > 10 µM | > 10 µM | > 10 µM | 0 | 0 | 0 | 0 |  |  |  |  |  |  | 
7 | CN1[C@@H]2CC[C@H]1C[C@@H](OC(=O)[C@H](CO)c1ccccc1)C2 [hyoscyamine] | 103% | 99.8% | 95% | 94.2% | 89.6% | 103% | 91.6% | 99.9% | 97.2% | 99.4% | 111% | 98.2% | 106% | 89.3% | 104% | 98.9% | 101% | 97.8% | 101% | 99.9% | > 10 µM | > 10 µM | > 10 µM | > 10 µM | 0 | 0 | 0 | 0 |  |  |  |  |  |  | 
8 | COC(=O)C1=C(C)NC(C)=C(C(=O)OC(C)C)[C@@H]1c1cccc2nonc12 [isradipine] | 107% | 96.2% | 99.3% | 93.5% | 94.2% | 101% | 98.9% | 91.7% | 97.9% | 95.2% | 98.9% | 103% | 105% | 106% | 95.9% | 103% | 97.9% | 104% | 102% | 98.5% | > 10 µM | > 10 µM | > 10 µM | > 10 µM | 0 | 0 | 0 | 0 |  |  |  |  |  |  | 
9 | C=C(C)[C@H]1CN[C@H](C(=O)O)[C@H]1CC(=O)O [kainic-acid] | 97.5% | 95.7% | 96.7% | 104% | 96.8% | 93.4% | 88.2% | 93.5% | 90.3% | 98.3% | 106% | 105% | 110% | 102% | 93.7% | 99.7% | 99.4% | 101% | 99.8% | 95.6% | > 10 µM | > 10 µM | > 10 µM | > 10 µM | 0 | 0 | 0 | 0 |  |  |  |  |  |  | 
10 | CCN1C[C@]2(OC(=O)c3ccccc3NC(C)=O)CC[C@H](OC)[C@@]34[C@@H]2C[C@@H]([C@@H]13)[C@@]1(O)C[C@H](OC)[C@H]2C[C@@H]4[C@]1(O)[C@H]2OC [lappaconite] | 87.7% | 99% | 85.5% | 95.2% | 89.8% | 103% | 86.1% | 94.1% | 102% | 106% | 101% | 97.1% | 103% | 100% | 107% | 103% | 103% | 98.1% | 99.1% | 94.4% | > 10 µM | > 10 µM | > 10 µM | > 10 µM | 0 | 0 | 0 | 0 |  |  |  |  |  |  | 
11 | CC[C@@H](C(N)=O)N1CCCC1=O [levetiracetam] | 96.2% | 91.6% | 100% | 95.2% | 101% | 87.4% | 91.8% | 98.6% | 103% | 103% | 93.2% | 105% | 90% | 104% | 92% | 103% | 98.2% | 101% | 97.2% | 103% | > 10 µM | > 10 µM | > 10 µM | > 10 µM | 0 | 0 | 0 | 0 |  |  |  |  |  |  | 
12 | CN1CCN(c2cccc3[nH]c(=O)oc23)CC1 [pardoprunox] | 102% | 101% | 96.4% | 90.6% | 100% | 95.8% | 93.2% | 102% | 107% | 99.1% | 90.7% | 105% | 89.1% | 99.2% | 97.3% | 106% | 99.3% | 102% | 95.3% | 101% | > 10 µM | > 10 µM | > 10 µM | > 10 µM | 0 | 0 | 0 | 0 |  |  |  |  |  |  | 
13 | Cc1ccc(-n2nc(C(C)(C)C)cc2NC(=O)NCc2cc(F)ccc2Oc2ccc3c(cnn3CCO)c2)cc1 [pexmetinib] | 100% | 93.2% | 91.4% | 84.3% | 81.4% | 100% | 85.9% | 93.2% | 95.8% | 91% | 96.9% | 109% | 104% | 90.7% | 0.1% | 96.8% | 90.8% | 97.1% | 80.9% | 54.3% | > 10 µM | > 10 µM | 2.4 µM |  | 2.1 | 0 | 7 | 4.5 | 97.6% | 100% | 91.2% | 104% | 64.7% |  | 1.4
14 | CCCOc1ccc2c(c1)CC[C@@H]1[C@@H]2CC[C@]2(C)[C@@H](OC)CC[C@@H]12 [promestriene] | 97.9% | 97.4% | 97.7% | 90.4% | 98.5% | 99% | 90.9% | 97.5% | 92.3% | 104% | 102% | 107% | 103% | 93% | 97.9% | 93.5% | 105% | 96.2% | 96.5% | 99.9% | > 10 µM | > 10 µM | > 10 µM | > 10 µM | 0 | 0 | 0 | 0 |  |  |  |  |  |  | 
15 | CCC(=O)NC[C@@H]1C[C@H]1c1cccc2c1CCO2 [tasimelteon] | 97.9% | 92.1% | 90.6% | 98% | 99.4% | 91.1% | 103% | 91.9% | 103% | 103% | 108% | 107% | 102% | 106% | 98.5% | 92.8% | 103% | 93.9% | 93.6% | 102% | > 10 µM | > 10 µM | > 10 µM | > 10 µM | 0 | 0 | 0 | 0 |  |  |  |  |  |  | 
16 | O=c1[nH]c(=O)n([C@H]2C[C@H](O)[C@@H](CO)O2)cc1C(F)(F)F [trifluridine] | 93.3% | 93.9% | 98.4% | 94% | 81.7% | 106% | 121% | 103% | 100% | 97.7% | 95.9% | 93.2% | 104% | 64.8% | 36.1% |  |  |  |  |  | > 10 µM | > 10 µM | 0.923 µM |  | 0.9 | 0 | 7.8 |  | 101% | 105% | 108% | 102% | 69.5% |  | 1.2
